“And” between values parts separate entries of the source, which are not always exact repeats. Equal entries are not always repeated. The source made the active and inactive calls. No cut-off for these calls is given here. Positions of bridges follow the written chain, without caps; N, C: chain ends. Residues, ends and D or L forms follow the SMILES beside them.
What was measured:
SH-SY5Y [1] = assay: Cytotoxicity against human SH-SY5Y cells using best fit nonlinear regression analysis; type: functional, cell-based
U-87 MG [2] = assay: Cytotoxicity against human U-87 MG cells assessed as TMZ-induced cell death at 4.4 uM cotreated with 352 uM of TMZ measured after 72 hrs by phase contrast microscopy; type: functional, cell-based; conditions: U-87MG ATCC
U-251 = assay: Cytotoxicity against human U-251 cells by sulforhodamine B assay; type: functional, cell-based
U-87 MG [3] = assay: Cytotoxicity against human U-87 MG cells by sulforhodamine B assay; type: functional, cell-based, U-87MG ATCC
SH-SY5Y [4] = assay: Cytotoxicity against human SH-SY5Y cells assessed as cell viability using raw interpretation method; type: functional, cell-based
U-87 MG [5] = assay: Cytotoxicity against human U-87 MG cells assessed as cell viability using raw interpretation method; type: functional, cell-based, U-87MG ATCC
U-87 MG [6] = assay: Cytotoxicity against human U-87 MG cells using best fit nonlinear regression analysis; type: functional, cell-based, U-87MG ATCC
SH-SY5Y [7] = assay: Cytotoxicity against human SH-SY5Y cells assessed as cell viability at 5 uM upto 72 hrs by MTT assay; type: functional; conditions: time hrs <=72, read-out: Activity
U-87 MG [8] = assay: Cytotoxicity against human U-87 MG cells assessed as cell viability at 5 uM upto 72 hrs by MTT assay; type: functional, U-87MG ATCC; conditions: time hrs <=72, read-out: Activity
SH-SY5Y [9] = assay: Cytotoxicity against human SH-SY5Y cells assessed as TMZ-induced cell death at 0.27 to 2.15 uM cotreated with 216.2 uM of TMZ incubated upto 72 hrs by MTT assay; type: functional; conditions: dose 0.27-2.15 µM, time hrs <=72
SH-SY5Y [10] = assay: Cytotoxicity against human SH-SY5Y cells assessed as TMZ-induced cell death at 2.15 uM cotreated with 108.1 uM of TMZ incubated upto 72 hrs by MTT assay; type: functional; conditions: time hrs <=72
SH-SY5Y [11] = assay: Cytotoxicity against human SH-SY5Y cells assessed as TMZ-induced cell death at 2.15 uM cotreated with 54.05 uM of TMZ incubated upto 72 hrs by MTT assay; type: functional; conditions: time hrs <=72
U-87 MG [12] = assay: Cytotoxicity against human U-87 MG cells assessed as TMZ-induced cell death at 4.5 uM cotreated with 352 to 1408 uM of TMZ incubated upto 72 hrs by MTT assay; type: functional, cell-based; conditions: U-87MG ATCC, time hrs <=72
U-87 MG [13] = assay: Induction of morphological changes in human U-87 MG cells assessed as appearance of shrunken cell bodies at 4.4 uM measured after 72 hrs by phase contrast microscopy; type: functional, cell-based; conditions: U-87MG ATCC
U-87 MG [14] = assay: Induction of morphological changes in human U-87 MG cells assessed as membrane blebbing at 4.4 uM measured after 72 hrs by phase contrast microscopy; type: functional, cell-based; conditions: U-87MG ATCC
U-87 MG [15] = assay: Induction of morphological changes in human U-87 MG cells assessed as cell death at 4.4 uM cotreated with 352 uM of TMZ measured after 72 hrs by phase contrast microscopy; type: functional, cell-based; conditions: U-87MG ATCC
U-87 MG [16] = assay: Induction of morphological changes in human U-87 MG cells assessed as swollen nuclei at 4.4 uM cotreated with 352 uM of TMZ measured after 72 hrs by phase contrast microscopy; type: functional, cell-based; conditions: U-87MG ATCC
U-87 MG [17] = assay: Induction of morphological changes in human U-87 MG cells assessed as membrane blebbing at 4.4 uM cotreated with 352 uM of TMZ measured after 72 hrs by phase contrast microscopy; type: functional, cell-based; conditions: U-87MG ATCC
U-87 MG [18] = assay: Effect on cell morphology in human U-87 MG cells at 4.4 uM cotreated with 352 uM of TMZ measured after 72 hrs by phase contrast microscopy; type: functional, cell-based; conditions: U-87MG ATCC
SH-SY5Y [19] = assay: Cytotoxicity against human SH-SY5Y cells assessed as cell viability at 100 uM incubated upto 72 hrs by MTT assay; type: functional; conditions: time hrs <=72, read-out: Activity
SH-SY5Y [20] = assay: Cytotoxicity against human SH-SY5Y cells assessed as cell viability at 2000 uM incubated upto 72 hrs by MTT assay; type: functional; conditions: time hrs <=72, read-out: Activity
SH-SY5Y [21] = assay: Cytotoxicity against human SH-SY5Y cells assessed as cell viability at 500 uM incubated upto 72 hrs by MTT assay; type: functional; conditions: time hrs <=72, read-out: Activity
U-87 MG [22] = assay: Cytotoxicity against human U-87 MG cells assessed as cell viability at 100 uM incubated upto 72 hrs by MTT assay; type: functional, U-87MG ATCC; conditions: time hrs <=72, read-out: Activity
U-87 MG [23] = assay: Cytotoxicity against human U-87 MG cells assessed as cell viability at 2000 uM incubated upto 72 hrs by MTT assay; type: functional, U-87MG ATCC; conditions: time hrs <=72, read-out: Activity
U-87 MG [24] = assay: Cytotoxicity against human U-87 MG cells assessed as cell viability at 10000 uM incubated upto 72 hrs by MTT assay; type: functional, U-87MG ATCC; conditions: time hrs <=72, read-out: Activity
U-87 MG [25] = assay: Cytotoxicity against human U-87 MG cells assessed as cell death at 352 uM incubated upto 72 hrs by MTT assay; type: functional, U-87MG ATCC; conditions: time hrs <=72
U-87 MG [26] = assay: Induction of morphological changes in human U-87 MG cells assessed as appearance of shrunken cell bodies at 1408 uM measured after 72 hrs by phase contrast microscopy; type: functional, U-87MG ATCC
U-87 MG [27] = assay: Induction of morphological changes in human U-87 MG cells assessed as membrane blebbing at 1408 uM measured after 72 hrs by phase contrast microscopy; type: functional, U-87MG ATCC
U-87 MG [28] = assay: Induction of morphological changes in human U-87 MG cells assessed as appearance of undergoing apoptosis at 1408 uM measured after 72 hrs by phase contrast microscopy; type: functional, U-87MG ATCC

`CC[C@H](C)[C@@H]1NC(=O)[C@H](C)NC(=O)[C@H](CO)NC(=O)[C@H](CO)NC(=O)[C@H]([C@@H](C)CC)NC(=O)[C@@H]2CSSC[C@@H]3NC(=O)[C@H](C(C)C)NC(=O)[C@H](CCCCN)NC(=O)[C@H](CO)NC(=O)[C@H](CCCCN)NC(=O)[C@@H]4CSSC[C@H](NC(=O)[C@H](CO)NC(=O)[C@H](CCC(=O)O)NC(=O)CNC(=O)[C@H](CSSC[C@H](NC(=O)CNC1=O)C(=O)N[C@@H](CO)C(=O)N4)NC(=O)[C@@H]1CCCN1C(=O)[C@H]([C@@H](C)CC)NC(=O)CNC(=O)[C@H](CC(N)=O)NC(=O)[C@H](CCCNC(=N)N)NC(=O)[C@H](Cc1ccc(O)cc1)NC3=O)C(=O)N[C@@H](C(C)C)C(=O)N[C@@H](Cc1c[nH]c3ccccc13)C(=O)N[C@@H]([C@@H](C)CC)C(=O)N1CCC[C@H]1C(=O)N2` (cyclo(AIGCSCKSKVCYRNGIPCGESCVWIPCISS); disulfide 4-18, 6-22, 11-27) was tested, and the IC50 (SH-SY5Y [1]) was 2.15 µM, the Activity (U-87 MG [2]) was “inactive” and the IC50 (U-251) was 17.1 µg/mL and 790 nM. For the same compound, the IC50 (U-87 MG [3]) was 0.45 µM, the IC50 (SH-SY5Y [4]) was 3.07 µM and the IC50 (U-87 MG [5]) was 5.66 µM. For the same compound, the IC50 (U-87 MG [6]) was 4.5 µM, the viability at 5 µM (SH-SY5Y [7]) was 11.5% and the viability at 5 µM (U-87 MG [8]) was 54.7%. The Activity (SH-SY5Y [9]) was 40%, the Activity (SH-SY5Y [10]) was 30% and the Activity (SH-SY5Y [11]) was under 20%. The Activity (U-87 MG [12]) was “Active”, the Activity (U-87 MG [13]) was “Active” and the Activity (U-87 MG [14]) was “Active”. The Activity (U-87 MG [15]) was “Active”, the Activity (U-87 MG [16]) was “Active” and the Activity (U-87 MG [17]) was “Active”. For the same compound, the Activity (U-87 MG [18]) was “Active”.
For `CC[C@H](C)[C@@H]1NC(=O)[C@H](C)NC(=O)[C@H](C)NC(=O)[C@H](CO)NC(=O)[C@H]([C@@H](C)CC)NC(=O)[C@@H]2CSSC[C@@H]3NC(=O)[C@H](C(C)C)NC(=O)[C@H](CCCCN)NC(=O)[C@H](CO)NC(=O)[C@H](CCCCN)NC(=O)[C@@H]4CSSC[C@H](NC(=O)[C@H](CO)NC(=O)[C@H](CCC(=O)O)NC(=O)CNC(=O)[C@H](CSSC[C@H](NC(=O)CNC1=O)C(=O)N[C@@H](CO)C(=O)N4)NC(=O)[C@@H]1CCCN1C(=O)[C@H]([C@@H](C)CC)NC(=O)CNC(=O)[C@H](CC(N)=O)NC(=O)[C@H](CCCNC(=N)N)NC(=O)[C@H](Cc1ccc(O)cc1)NC3=O)C(=O)N[C@@H](C(C)C)C(=O)N[C@@H](Cc1c[nH]c3ccccc13)C(=O)N[C@@H]([C@@H](C)CC)C(=O)N1CCC[C@H]1C(=O)N2` [CYCLOVIOLACIN O13] (cyclo(AAIGCSCKSKVCYRNGIPCGESCVWIPCIS); disulfide 5-19, 7-23, 12-28), the IC50 (SH-SY5Y [1]) was 2.15 µM, the IC50 (SH-SY5Y [4]) was 3.07 µM and the IC50 (U-87 MG [5]) was 3.36 µM. It also gave an IC50 (U-87 MG [6]) of 2.57 µM, a viability at 5 µM (SH-SY5Y [7]) of 12.5% and a viability at 5 µM (U-87 MG [8]) of 29.7%.
For `Cn1nnc2c(C(N)=O)ncn2c1=O` [TEMOZOLOMIDE], the IC50 (SH-SY5Y [1]) was 393 µM, the viability at 100 µM (SH-SY5Y [19]) was 96.6% and the viability at 2000 µM (SH-SY5Y [20]) was 15.5%. For the same compound, the viability at 500 µM (SH-SY5Y [21]) was 41.5%, the viability at 100 µM (U-87 MG [22]) was 85.2% and the viability at 2000 µM (U-87 MG [23]) was 57.3%. It also gave a viability at 10000 µM (U-87 MG [24]) of 32.4%, an IC50 (SH-SY5Y [4]) of 513 µM and an IC50 (U-87 MG [5]) of 3190 µM. It also gave an IC50 (U-87 MG [6]) of 2900 µM, an Activity (U-87 MG [25]) of 10% and an Activity (U-87 MG [26]) of 40%. For the same compound, the Activity (U-87 MG [27]) was 40% and the Activity (U-87 MG [28]) was 40%.
